Laboratory results published in patent US10500218B2, “Uptake of pharmaceuticals within cyclodextrin-based porous materials” (Northwestern University, priority 2015, dated 2019).

What was measured:
[1] = Storage under ambient conditions: hygroscopicity and crystallinity (PXRD); format: physicochemical; settings: atmospheric / ambient conditions, several months for the CD-MOF-1 formulation
Description: FIG. 3A depicts powder X-ray diffraction (PXRD) of freshly prepared CD-MOF-1 formulations of ibuprofen prepared by co-crystallization from the potassium salt of ibuprofen and adsorption of the deprotonated acid form of ibuprofen within a pre-existing CD-MOF-1, compared to the predicted I432 diffraction pattern.
Three formulations were tested: ibuprofen, potassium salt, and a physical mixture of 23 wt. % ibuprofen, potassium salt with γ-CD (which is analogous to a stoichiometric loading of ibuprofen within CD-MOF-1 created by co-crystallization) were used as control samples, and the third formulation contained CD-MOF-1 loaded with 26 wt. % ibuprofen by the adsorption protocol. The potassium salt of ibuprofen was considered to be the most appropriate control form of ibuprofen in this study, as the results of the solvent-dependent adsorption loading of ibuprofen is evidence that an anion exchange process was occurring within CD-MOf-1, i.e., deprotonation of the free-acid form of ibuprofen, which was facilitated by water-miscible polar solvents. […] It is used, however, in rapid release gelatin capsules.

[2] = system: MCF-10A (human mammary epithelial cells); test: Growth inhibition / cell viability (Cell Titer-Glo) on MCF-10A cells; format: cell-based; settings: 48 hours, tested up to 100 μM
Description: (§1) Toxicity studies of both CD-MOF-1 and ibuprofen were carried out in vitro on two cell lines: MCF-10A (human mammary epithelial cells) (FIG. 4A) and MDA-MB-231 (human breast adenocarcinoma) (FIG. 4B). For both cell lines, no IC50 value could be obtained for CD-MOF-1, and ibuprofen up to concentrations of 100 μM.
(§2) Cell Studies. For cell studies, CD-MOF-1 was solubilized in H2O and the free-acid of ibuprofen was solubilized in Me2SO. The growth inhibition of various cell lines was determined according to the protocols from the NCl/NIH Developmental Therapeutics Program, and in collaboration with the Northwestern University Developmental Therapeutics Core Facility. Cells were plated in triplicate in 96 well plates. The cells were plated at densities of 10,000 per well in 90 μL for MDA-MB-231; and 25,000 per well in 90 μL for MCF-10A. The MDA-MB-231 cells were cultured in RPMI1640 media supplemented with 10% Fetal Bovine Serum (FBS), and 2 mM glutamine with 5% CO2 at 37° C. For experiments, 5% of FBS and 50 μg/mL of gentamycin were used. […]
(§3) Time zero cells (Tz) were processed according to the Promega Cell Titer Glo, and the following day Cell Titer-Glo Luminescent Cell Viability Assay. […] The plates were shaken for 2 min and allowed to sit for activation prior to reading for 10 min. Plates were read on a BioTek reader using the luminescence program.

[3] = system: MDA-MB-231 (human breast adenocarcinoma); test: Growth inhibition / cell viability (Cell Titer-Glo) on MDA-MB-231 cells; format: cell-based; settings: 48 hours, tested up to 100 μM
Description: as §1, §2, §3

SMILES | hygroscopicity [1] | IC50 [2] [µM] | IC50 [3] [µM]
CC(C)Cc1ccc(C(C)C(=O)[O-])cc1.[K+] (stereo not drawn) [potassium salt of ibuprofen, ibuprofen, potassium salt] | very hygroscopic | – | –
CC(C)Cc1ccc(C(C)C(=O)O)cc1 (racemic) [ibuprofen] | – | > 100 | > 100
